Laboratory results: paper PMC11324517 (Nature, 2024)
Where “and” joins values, the source holds several entries; their conditions need not be identical. Identical values can stand only once.

How the values were obtained:
∆-hDAT [1] = target: T1, ∆-hDAT (Homo sapiens, UniProt Q01959, I248Y); assay: Scintillation proximity assay (SPA), [3H]WIN35428 binding to purified His-tagged ∆-hDAT; design: expressed in transfected cells; host or cells: HEK293 GnTI- cells, BacMam baculovirus transduction; settings: β-CFT 0.617 nM, background not subtracted
Description: The various buffer systems were unchanged. YSi-Cu SPA beads at 1 mg ml^−1 were added to ∆-hDAT (30 nM) in SEC buffer (0.02% digitonin, 0.002% CHS, 50 mM HEPES pH 7.8, 200 mM NaCl, 25 µM POPC and 4 µM MRS7292). [^3H]-WIN35428 (82.8 Ci mmol^−1) in 20 mM HEPES pH 7.8 and 100 mM NaCl was used at concentration points ranging from 0 to 150 nM. For background measurement, 100 µM of GBR12909 was added to the assay buffer. Reactants were added to a 96-well isoplate, briefly mixed on a shaker at room temperature, and [^3H] counts were recorded using a MicroBeta2. […] Background subtracted counts were plotted and analysed by a single-site binding model via nonlinear regression analysis in GraphPad Prism v7.05.

∆-hDAT T211H = target: T2, ∆-hDAT T211H (Homo sapiens, UniProt Q01959, I248Y/T211H); assay: Zn2+ inhibition of [3H]dopamine uptake (IC50), T211H mutant; assay type: cell-based; settings: for T211H total: [3H]dopamine uptake raw counts, Fig 3c, triplicates, replicates 1-3
T2 construct: expressed in transfected cells; host or cells: HEK293 GnTI- cells, BacMam baculovirus transduction
Description: (§1) For IC50 measurements of Zn^2+, uptake assays were carried out as described for MRS7292 with the following alterations. The uptake buffer contained EPPS at pH 8.5 in place of HEPES. Cells were washed once with uptake buffer containing 1 mM ethylenediaminetetraacetic acid (EDTA) to chelate ambient Zn^2+ from the cell growth medium, followed by second wash without EDTA. Cells were then incubated for 15 min in uptake buffers containing 0.3–300 µM added Zn^2+ for ∆-hDAT, 0.1–100 µM added Zn^2+ for T211H, and 0.03–30 µM added Zn^2+ for T211E. […] The IC50 of Zn^2+ for the T211E mutant was also measured at pH 7.5 to obtain a more complete inhibition curve.

∆-hDAT T211E = target: T3, ∆-hDAT T211E (Homo sapiens, UniProt Q01959, I248Y/T211E); assay: Zn2+ inhibition of [3H]dopamine uptake (IC50), T211E mutant; assay type: cell-based; settings: for T211E total: [3H]dopamine uptake raw counts, Fig 3c, triplicates, replicates 1-3
T3 construct: expressed in transfected cells; host or cells: HEK293 GnTI- cells, BacMam baculovirus transduction
Description: as §1

hDAT D191N = settings: D191 mutated to asparagine; cited from earlier work
∆-hDAT [2] = target: T1, ∆-hDAT; assay: Zn2+ inhibition of [3H]dopamine uptake (IC50), ∆-hDAT; assay type: cell-based; design: expressed in transfected cells; host or cells: HEK293 GnTI- cells, BacMam baculovirus transduction; settings: [3H]dopamine uptake raw counts, Fig 3c, triplicates, replicates 1-3
Description: as §1

T2 sequence (Q01959 57-620 T211H/I248Y limits assumed): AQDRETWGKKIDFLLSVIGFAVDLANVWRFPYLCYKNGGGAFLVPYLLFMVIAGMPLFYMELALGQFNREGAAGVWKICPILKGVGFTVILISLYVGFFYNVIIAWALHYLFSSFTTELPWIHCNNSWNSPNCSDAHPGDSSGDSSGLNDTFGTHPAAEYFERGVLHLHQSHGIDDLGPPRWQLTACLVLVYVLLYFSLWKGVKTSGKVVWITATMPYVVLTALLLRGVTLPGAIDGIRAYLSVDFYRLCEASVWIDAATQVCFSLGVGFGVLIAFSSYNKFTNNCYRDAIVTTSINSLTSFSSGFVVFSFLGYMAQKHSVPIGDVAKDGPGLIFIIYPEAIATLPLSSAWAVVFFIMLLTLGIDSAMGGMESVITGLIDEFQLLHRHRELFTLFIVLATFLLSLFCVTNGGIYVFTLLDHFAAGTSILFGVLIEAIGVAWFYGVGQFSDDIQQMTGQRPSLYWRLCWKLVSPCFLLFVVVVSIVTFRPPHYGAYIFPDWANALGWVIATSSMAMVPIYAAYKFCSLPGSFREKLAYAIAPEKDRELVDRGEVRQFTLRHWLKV
T1 sequence (Q01959 57-620 I248Y limits assumed): as the sequence (Q01959 57-620 T211H/I248Y limits assumed) above, with H155T counted along it
T3 sequence (Q01959 57-620 T211E/I248Y limits assumed): as the sequence (Q01959 57-620 T211H/I248Y limits assumed) above, with H155E counted along it

With `COC(=O)C1C(c2ccc(F)cc2)CC2CCC1N2C` (single isomer, unassigned; (-)) [β-CFT, (–)-2-β-carbomethoxy-3-β-(4-fluorophenyl)tropane] as the molecule, how does the “SPA total counts, binding to purified ∆-hDAT” value (∆-hDAT [1]) read?
The value was 204 and 169 and 192 and 177 and 171 and 174 and 189 and 179.

What does the source list for `[Zn+2]` [Zn^2+]?
T211H total (∆-hDAT T211H; Added Zn2+ 0.14 µM): 2307 and 2405 and 2334 and 1111 and 679 and 946 and 2428 and 2969 and 2868; T211H total (∆-hDAT T211H; Added Zn2+ 0.41 µM): 1917 and 1650 and 1702 and 922 and 890 and 993 and 2213 and 1804 and 1794; T211H total (∆-hDAT T211H; Added Zn2+ 1.23 µM): 1146 and 1389 and 1404 and 571 and 540 and 534 and 1806 and 1414 and 1274; T211H total (∆-hDAT T211H; Added Zn2+ 3.70 µM): 951 and 892 and 809 and 316 and 317 and 411 and 837 and 824 and 1109; T211H total (∆-hDAT T211H; Added Zn2+ 11.11 µM): 810 and 577 and 717 and 230 and 281 and 267 and 486 and 515 and 477; T211H total (∆-hDAT T211H; Added Zn2+ 33.33 µM): 528 and 524 and 546 and 246 and 210 and 198 and 441 and 462 and 475; T211H total (∆-hDAT T211H; Added Zn2+ 100.00 µM): 419 and 394 and 350 and 158 and 145 and 163 and 252 and 226 and 267; IC50 of Zn2+ lower than that of ∆-hDAT (∆-hDAT T211H; T211H mutant, [3H]dopamine uptake, pH 8.5): ~20 fold; T211E total (∆-hDAT T211E; Added Zn2+ 0.0457 µM): 1043 and 1084 and 946 and 1214 and 1350 and 1252 and 1437 and 1516 and 1325; T211E total (∆-hDAT T211E; Added Zn2+ 0.14 µM): 623 and 609 and 563 and 777 and 766 and 728 and 853 and 1009 and 867; T211E total (∆-hDAT T211E; Added Zn2+ 0.41 µM): 635 and 450 and 501 and 372 (2×) and 389 and 527 and 516 and 677; T211E total (∆-hDAT T211E; Added Zn2+ 1.23 µM): 459 and 447 and 440 and 286 and 276 and 244 and 481 and 403 (2×); T211E total (∆-hDAT T211E; Added Zn2+ 3.70 µM): 335 and 268 and 302 and 159 and 217 and 381 and 284 and 246 and 231; T211E total (∆-hDAT T211E; Added Zn2+ 11.11 µM): 323 and 314 and 345 and 238 and 249 and 229 and 277 and 278; T211E total (∆-hDAT T211E; Added Zn2+ 33.33 µM): 416 and 290 and 362 and 261 and 242 and 215 and 342 and 313 and 301; IC50 of Zn2+ lower than that of ∆-hDAT (∆-hDAT T211E; T211E mutant, [3H]dopamine uptake, pH 8.5): around 100 fold; decrease in apparent Zn2+ affinity (hDAT D191N): apparent threefold decrease; Δ-hDAT total counts (∆-hDAT [2]; Added Zn2+ 0.41 µM): 3458 counts and 3089 counts and 3357 counts and 3017 counts and 2960 counts and 2624 counts and 3155 counts and 3308 counts and 3482 counts; Δ-hDAT total counts (∆-hDAT [2]; Added Zn2+ 1.23 µM): 3105 counts and 3118 counts and 3175 counts and 2225 counts and 1943 counts and 2195 counts and 3616 counts and 3027 counts and 2892 counts; Δ-hDAT total counts (∆-hDAT [2]; Added Zn2+ 3.70 µM): 1979 counts and 2178 counts and 2228 counts and 2099 counts and 1947 counts and 1866 counts and 2321 counts and 2149 counts and 1943 counts; Δ-hDAT total counts (∆-hDAT [2]; Added Zn2+ 11.11 µM): 2029 counts and 1818 counts and 1787 counts and 1695 counts and 1560 counts and 1477 counts and 1550 counts and 1703 counts and 2026 counts; Δ-hDAT total counts (∆-hDAT [2]; Added Zn2+ 33.33 µM): 1238 counts and 1123 counts and 1240 counts and 1063 counts and 1147 counts and 906 counts and 1573 counts and 1503 counts and 1606 counts; Δ-hDAT total counts (∆-hDAT [2]; Added Zn2+ 100.00 µM): 771 counts and 681 counts and 793 counts and 660 counts and 598 counts and 682 counts and 1221 counts and 1015 counts and 885 counts; Δ-hDAT total counts (∆-hDAT [2]; Added Zn2+ 300.00 µM): 402 counts and 451 counts and 435 counts and 386 counts and 349 counts and 353 counts and 418 counts and 427 counts
